Experiment [1] concerns MPTP-induced mouse. As to the kind of experiment: Concentration of dopamine in striatum of MPTP-induced mouse (HPLC). The conditions noted are these: 1 mg/kg oral once a day, FIG. 4. The experiment is classed as in vivo, C57BL/6 mice. On the procedure: 7 days after the compounds described above are respectively administered to the three groups, the mice in each group were sacrificed by cervical dislocation and brain tissues were immediately taken out of the mice. Striatum was collected from the brain tissue, 0.5 ml of a HPLC assay diluent (0.1 M HClO4, 0.1 mM EDTA) was added to the striatum, and a tissue homogenate was then prepared using an ultrasonic processor. The homogenate was centrifuged at 12,000 rpm for 15 minutes, and the supernatant was filtered with a nitrocellulose filter (0.2 um, Millipore). For HPLC analysis, HR-80 column (80 mm×4.6 mm, particle size: 3 μm ESA, USA) was used, the flow rate of a mobile phase (0.07 M monobasic sodium phosphate, 1 mM sodium octasulfonic acid, 0.1 uM EDTA, 5% acetonitrile, pH 3.2) was maintained at 0.7 ml/min, and the electrode potential of an electrochemical detector (Coulochem III, ESA, USA) was at E1=−100 mV, E2=350 mV.

Experiment [2] has as its system MAO-B-deficient human neuroblastoma SH-SY5Y cells. As to the kind of experiment: Reactive oxygen species (DCF-DA staining) in MPP+-treated cells. The note with it: 2 mM MPP+, 50 nM, 24 hours; FIGS. 19 and 20. The experiment is classed as cell-based. On the procedure:
In this embodiment, MAO-B-deficient human neuroblastoma SH-SY5Y cells (Korean Cell Line Bank) were used. The cells were cultured in a DMEM medium at 37° C. with 5% of CO2 for 24 hours. The cultured cells were divided into three groups, 2 mM of MPP^+ was added to each group, one of the three groups was treated with 50 nM of CBI, one of the other two groups was treated with 50 nM of rasagiline, and the three groups were further incubated with 5% of CO2 at 37° C. for 24 hours. The group with only MPP^+ added thereto was incubated under the same conditions as described above. Subsequently, the cells were stained with 2,7-dichlorofluorescein diacetate (DCF-DA), which is a fluorescence dye capable of detecting reactive oxygen species, and then observed using a confocal microscope (Nikon Co., Japan).

The subject of the next experiment is caspase 3. As to the kind of experiment: Activity of caspase 3/7 (Apo-ONE) in MPP+-treated cells. It counts as cell-based, human. The note with it: 2 mM MPP+, 24 hours; CBI 1, 5, 10 and 50 nM, rasagiline 50 nM; FIG. 18.
In experiment [3] the test system is MPTP-induced mouse. As to the kind of experiment: Number of neurites and spines per neuron in MPTP-induced mouse (confocal microscopy). The note with it: 1 mg/kg oral once a day for 10 days after MPTP. The experiment is classed as in vivo, C57BL/6 mice. How it is done: To observe whether or not the number of neurites and spines per neuron in the tissues was increased, a coronal slice with a thickness of 200 um containing striatum or substantia nigra was prepared using a vibratome. Each group of mice was sacrificed, and the brain was taken out of each group and then placed in a cold, highly-concentrated sucrose dissection buffer bubbled with carbogen (5% CO2 and 95% O2) (87 mM NaCl, 2.5 mM KCl, 1.25 mM NaH2PO4, 25 mM NaHCO3, 1 mM CaCl2, 3 mM MgCl2, 10 mM dextrose, and 75 mM sucrose). While the vibratome was performed, a slicing chamber was filled with the uniformly carbogenated sucrose dissection buffer. After the slicing process was terminated, all the slices were washed with PBS, and fixed with 4% paraformaldehyde in a PBS solution. The fixed brain slices were placed on a 1.5% agarose (in PBS) block. Images thereof were obtained using a confocal microscope (ZEISS LSM 510 META) by using Zeiss LSM image browser software (Carl Zeiss Microimaging, Germany, version 4.0 SP2).

This note sets out measurements from patent US9290464B2 (priority 2010, dated 2016).

Description for caspase 3: SH-SY5Y cells were incubated in a 96-well plate at a concentration of 5×10^5 cells/well under the same conditions as described above, the cells were treated with 2 mM of MPP^+ and CBI (1, 5, 10 and 50 nM) or rasagiline (50 nM), and the resulting cells were incubated for 24 hours. Subsequently, 100 μl of Apo-ONE caspase 3/7 reagent (Promega, G7790) was added thereto and mixed therewith, and the resultant was further incubated for 4 hours. After the incubation was terminated, fluorescence was measured at an excitation wavelength of 495 nm and an emission wavelength of 521 nm by using a fluorescence plate reader (GeminiXPS, Molecular Devices).

Turning to `C#CCN[C@@H]1CCc2ccccc21` [rasagiline, R(+)-N-propargyl-1-aminoindan, reference compound], the “restoration of the concentration of dopamine in striatum compared with normal mice” value in the experiment with MPTP-induced mouse [1] was “about 40%”. The reactive oxygen species entry in experiment [2] was “significantly decreased”. For the same compound, the “activity of caspase 3” value with caspase 3 was “reduced”. Moreover, the number of neurites result in the experiment with MPTP-induced mouse [3] (FIG. 23) is recorded as “did not exhibit statistical significance”. Besides, the number of spines result with MPTP-induced mouse [3] (FIG. 24) was “an increase in the number of spines was observed”.
